In patent US20070037883A1, “Therapeutic compositions” (priority 2003, published 2007):
“Also recorded” adds a separate entry of the source.

Legend:
rat basilar artery = assay: Acetylcholine-induced dilator responses of the rat basilar artery in vivo after subarachnoid haemorrhage; settings: suramin 300 mg/kg s.c. over 7 days, 2 days after SAH, FIG. 14
Procedure: Subarachnoid hemorrhage: On Day 0, rats are briefly anaesthetized (pentobarbital 50 mg/kg ip) and an osmotic minipump containing either saline or suramin is implanted subcutaneously. The dose rate of suramin is 300 mg/kg per 7 days. On Day 5, rats are again anaesthetized and 0.3 ml of blood is withdrawn from a femoral artery and injected into the cerebrospinal fluid around the ventral surface of the brain via the cisterna magna. In some control rats, saline is injected into the cerebrospinal fluid instead of arterial blood. The rat is allowed to recover for a further 2 days, and is then again anaesthetized on Day 7 for study.
Measurement of cerebral artery responses in vivo: Rats are anaesthetized with pentbarbital (50 mg/kg ip) and anaesthesia is maintained with supplemental pentobarbital (10-20 mg/kg per h iv). […] Basilar artery diameter is continuously measured using a computer-based image tracking device. The endothelium-dependent vasodilator acetylcholine is superfused over the basilar artery at a steady concentration of 1 micromolar for 3-5 minutes, and the increase in diameter is measured. The concentration of acetylcholine is then increased to 10, and then 100 micromolar in a similar manner and increases in diameter recorded. […] Responses to acetylcholine are then expressed as a percent of this maximum response. […]

[1] = biological target: T1, gp91phox-containing NADPH-oxidase in the mouse macrophage cell line J774 (Mus musculus, UniProt Q61093); assay: NADPH oxidase activity in intact J774 mouse macrophages; format: cell-based; settings: FIG. 2b
T1 construct: endogenous in cells; host or cells: J774 mouse macrophage cell line (intact cells)
T1 sequence (Q61093 2-570 limits assumed): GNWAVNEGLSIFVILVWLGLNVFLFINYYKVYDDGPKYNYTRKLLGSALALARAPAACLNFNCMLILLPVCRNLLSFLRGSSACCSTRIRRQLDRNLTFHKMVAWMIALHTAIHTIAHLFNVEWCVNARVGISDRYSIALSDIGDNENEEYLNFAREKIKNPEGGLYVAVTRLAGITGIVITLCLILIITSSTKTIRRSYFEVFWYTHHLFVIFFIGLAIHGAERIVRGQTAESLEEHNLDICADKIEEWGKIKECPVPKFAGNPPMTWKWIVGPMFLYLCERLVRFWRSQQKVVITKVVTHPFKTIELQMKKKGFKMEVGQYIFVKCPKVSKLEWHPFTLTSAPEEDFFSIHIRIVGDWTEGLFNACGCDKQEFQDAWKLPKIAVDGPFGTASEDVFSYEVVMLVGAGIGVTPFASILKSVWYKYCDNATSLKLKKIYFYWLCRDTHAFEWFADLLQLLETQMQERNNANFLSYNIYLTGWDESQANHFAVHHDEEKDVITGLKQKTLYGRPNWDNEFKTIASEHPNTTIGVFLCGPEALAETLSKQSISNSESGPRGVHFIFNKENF
T1 sequence (Q61462 1-192 partner): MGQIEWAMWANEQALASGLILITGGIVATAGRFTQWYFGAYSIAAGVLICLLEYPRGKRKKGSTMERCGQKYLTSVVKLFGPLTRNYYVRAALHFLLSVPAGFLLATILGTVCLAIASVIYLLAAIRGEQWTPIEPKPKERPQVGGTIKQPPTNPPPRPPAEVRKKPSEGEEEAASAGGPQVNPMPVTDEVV

SMILES: Cc1ccc(C(=O)Nc2ccc(S(=O)(=O)O)c3cc(S(=O)(=O)O)cc(S(=O)(=O)O)c23)cc1NC(=O)c1cccc(NC(=O)Nc2cccc(C(=O)Nc3cc(C(=O)Nc4ccc(S(=O)(=O)O)c5cc(S(=O)(=O)O)cc(S(=O)(=O)O)c45)ccc3C)c2)c1 [suramin]
- response of basilar artery diameter to acetylcholine in vivo after SAH (rat basilar artery): not impaired; also recorded: prevents any significant reduction
- effect on gp91phox-containing NADPH-oxidase in J774 macrophages / phagocytic cells [1]: does not inhibit; also recorded: ineffective
- effect on gp91phox-containing NADPH-oxidase in J774 macrophages / phagocytic cells ([1]; listed as Suramin): little effect
